Reference: patent publication US20070009895A1, “Method of interaction analysis and interaction analyzer” (priority 2003, published 2007)

Target: human FKBP12 (Homo sapiens, UniProt P62942)
Conditions: Measurement 3; first solutions of two or three samples, one of them 100 μM FKBP12, others HSA
From the text: An apparatus for analyzing interactions in this example includes a column TSK super SW2000 for size exclusion chromatography (column size: 1.0 ID×10 mm, 1.0 ID×30 mm or 1.0 ID×100 mm, manufactured by Tosoh Corporation) for a separation channel 1. The apparatus for analyzing interactions also includes an auto injector HTC-PAL (manufactured by CTC Analytics AG) for a container section 3, and a LC pump (Agilent 1100, manufactured by Yokogawa) for an introduction device 4. The apparatus for analyzing interactions also includes an ion trap mass spectrometer LCQ deca XP (ThermoQuest) for a detection device 5.
The auto injector HTC-PAL (CTC Analytics AG) includes a sample loop of 5 μL or 10 μL, a syringe of 10 μL, and sample trays with a cooling unit. A first solution was introduced by 50 μL into a 2 mL screw vial with a conical insert of 100 μL inserted therein. A screw cap with a septum was put on the vial and the vial was placed in a 54 vial rack and the rack was set in one of the sample trays. A second solution was introduced by 40 μL into each well of a 384 well-microplate, and the microplate was covered with an aluminum seal and set in another sample tray. The sample trays were set at the temperature of 10 degrees C. […]

human FKBP12, sequence (P62942 whole entry): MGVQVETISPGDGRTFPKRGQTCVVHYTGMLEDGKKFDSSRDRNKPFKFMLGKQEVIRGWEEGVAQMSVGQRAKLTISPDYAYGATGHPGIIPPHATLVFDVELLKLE

CC[C@@H]1/C=C(\C)C[C@H](C)C[C@H](OC)[C@H]2O[C@@](O)(C(=O)C(=O)N3CCCC[C@H]3C(=O)O[C@H](/C(C)=C/[C@@H]3CC[C@@H](O)[C@H](OC)C3)[C@H](C)[C@@H](O)CC1=O)[C@H](C)C[C@@H]2OC [Ascomycin]
interaction with FKBP12 (peaks in mass chromatogram of the compound): interaction between Ascomycin and FKBP12 is able to be detected
